Patent US9447135B2, “Semi-synthetic mithramycin derivatives with anti-cancer activity” (UNIVERSITY OF KENTUCKY RESEARCH FOUNDATION, priority 2012, dated 2016)

Key:
[1] = system: TC32 Ewing sarcoma cell line; test: 72 hour cytotoxicity, TC32; format: cell-based; details: Ewing sarcoma cell line TC32, 72 hour; read-out: IC50 (nM) TC 32
Method: (§1) The cytotoxicity of a subgroup of the MTM SA analogues was tested against various Ewing sarcoma cell lines and non-Ewing sarcoma cell lines over a 72 hour period. Each analogue was checked individually with a range of concentrations to determine the IC50 of the molecule in actively growing cell cultures.

[2] = system: 5838 Ewing sarcoma cell line; test: 72 hour cytotoxicity, 5838; format: cell-based; details: Ewing sarcoma cell line 5838, 72 hour
Method: as §1

[3] = system: SK-ES-1 Ewing sarcoma cell line; test: 72 hour cytotoxicity, SK-ES-1; format: cell-based; details: Ewing sarcoma cell line SK-ES-1, 72 hour
Method: as §1

[4] = system: TC71 Ewing sarcoma cell line; test: 72 hour cytotoxicity, TC71; format: cell-based; details: Ewing sarcoma cell line TC71, 72 hour
Method: as §1

[5] = system: ES-2 Ewing sarcoma cell line; test: 72 hour cytotoxicity, ES-2; format: cell-based; details: Ewing sarcoma cell line ES-2, 72 hour
Method: as §1

[6] = system: ES-3 Ewing sarcoma cell line; test: 72 hour cytotoxicity, ES-3; format: cell-based; details: Ewing sarcoma cell line ES-3, 72 hour
Method: as §1

[7] = system: ES-4 Ewing sarcoma cell line; test: 72 hour cytotoxicity, ES-4; format: cell-based; details: Ewing sarcoma cell line ES-4, 72 hour
Method: as §1

[8] = system: ES-7 Ewing sarcoma cell line; test: 72 hour cytotoxicity, ES-7; format: cell-based; details: Ewing sarcoma cell line ES-7, 72 hour
Method: as §1

[9] = system: ES-8 Ewing sarcoma cell line; test: 72 hour cytotoxicity, ES-8; format: cell-based; details: Ewing sarcoma cell line ES-8, 72 hour
Method: as §1

[10] = system: A549, human non-small cell lung cancer cells; test: 72 hour cytotoxicity, A549 (resazurin); format: cell-based; details: non-Ewing sarcoma cell line A549, 72 hour
Method: The cytotoxic effects of the side chain modifications of SA were investigated in order to determine whether the modification were beneficial to the drug structure. All cytotoxicity assays were performed with A549, human non-small cell lung cancer cells. A549 cells were cultured as specified from ATCC at 37° C., 5% CO2. The cells were added to a 96 well plate (5,000 cells/well) and permitted to attach for 24 h. After 24 h culture media were replaced with the side chain modified MTM SA derivative containing media at differing concentrations. The cells were incubated with the drug containing media for 72 hrs total (n=8). Cell viability was determined using a resazurin assay that signifies mitochondrial metabolic activity in living cells. […] of a 1 mM resazurin solution in PBS was added to the control and analogue-treated cells at the end of the treatment period. Cell viability was determined three hours later by reading the fluorescence at 560 nm (Ex)/590 nm (Em). The fluorescence signals were quantified using a Spectramax M5 plate reader (Molecular Devices) equipped with a SoftMaxPro software. Cytotoxicity was determined by calculating the half maximal inhibitory concentration (IC50) of each sample.
as §1

[11] = system: U118 non-Ewing sarcoma cell line; test: 72 hour cytotoxicity, U118; format: cell-based; details: non-Ewing sarcoma cell line U118, 72 hour
Method: as §1

[12] = system: A673 Ewing sarcoma cell line; test: 72 hour cytotoxicity, A673; format: cell-based; details: Ewing sarcoma cell line A673, 72 hour
Method: as §1

[13] = system: RDES Ewing sarcoma cell line; test: 72 hour cytotoxicity, RDES; format: cell-based
Method: as §1

[14] = 72 hour cytotoxicity, RH30; format: cell-based; details: Ewing sarcoma cell line RH30, 72 hour; read-out: IC50 (nM) RH 30
Method: as §1

[15] = system: VCaP non-Ewing sarcoma cell line; test: 72 hour cytotoxicity, VCaP; format: cell-based
Method: as §1

[16] = system: HCT-116 non-Ewing sarcoma cell line; test: 72 hour cytotoxicity, HCT-116; format: cell-based; details: non-Ewing sarcoma cell line HCT-116, 72 hour
Method: as §1

[17] = system: Ewing sarcoma (TC32, 5838, SKES1) and non-Ewing (A459 (lung) and PC3 (prostate)) cancer cell lines; test: Selectivity assay, Ewing sarcoma versus non-Ewing cell panel (72 hr cytotoxicity)
[18] = system: several cancer cell lines; details: cited from earlier work

| Compound | IC50 [1] [nM] | IC50 [2] [nM] | IC50 [3] [nM] | IC50 [4] [nM] | IC50 [5] [nM] | IC50 [6] [nM] | IC50 [7] [nM] | IC50 [8] [nM] | IC50 [9] [nM] | IC50 [10] [nM] | IC50 [11] [nM] | other results |
| --- | --- | --- | --- | --- | --- | --- | --- | --- | --- | --- | --- | --- |
| COc1ccc2[nH]cc(CCNC(=O)[C@@H](OC)[C@@H]3Cc4cc5cc(OC6CC(OC7CC(O)C(O)C(C)O7)C(O)C(C)O6)c(C)c(O)c5c(O)c4C(=O)[C@H]3OC3CC(OC4CC(OC5CC(C)(O)C(O)C(C)O5)C(O)C(C)O4)C(O)C(C)O3)c2c1 (stereo partly drawn) [MTMSA-5-OMe Trypamine] | 73 | 78 | 63 | 58 | 84 | 157 | 63 | 79 | 75 | 84 | 58 | – |
| COC(=O)[C@@H](OC)[C@@H]1Cc2cc3cc(OC4CC(OC5CC(O)C(O)C(C)O5)C(O)C(C)O4)c(C)c(O)c3c(O)c2C(=O)[C@H]1OC1CC(OC2CC(OC3CC(C)(O)C(O)C(C)O3)C(O)C(C)O2)C(O)C(C)O1 (stereo partly drawn) [MTMSA-Me ester] | 67 | 193 | 86 | 46 | 76 | 90 | 41 | 51 | 47 | 99 | 38 | – |
| CO[C@H](C(=O)NCCc1c[nH]c2ccccc12)[C@@H]1Cc2cc3cc(OC4CC(OC5CC(O)C(O)C(C)O5)C(O)C(C)O4)c(C)c(O)c3c(O)c2C(=O)[C@H]1OC1CC(OC2CC(OC3CC(C)(O)C(O)C(C)O3)C(O)C(C)O2)C(O)C(C)O1 (stereo partly drawn) [MTMSA-Tryptamine] | 110 | 439 | 226 | 78 | 155 | 216 | 90 | 86 | 97 | 196 | 76 | – |
| COC(=O)[C@H](Cc1ccccc1)NC(=O)[C@@H](OC)[C@@H]1Cc2cc3cc(O[C@H]4C[C@@H](O[C@H]5C[C@@H](O)[C@H](O)[C@@H](C)O5)[C@H](O)[C@@H](C)O4)c(C)c(O)c3c(O)c2C(=O)[C@H]1O[C@H]1C[C@@H](O[C@H]2C[C@@H](O[C@H]3C[C@](C)(O)[C@H](O)[C@@H](C)O3)[C@H](O)[C@@H](C)O2)[C@H](O)[C@@H](C)O1 [MTMSA-Phe] | – | – | – | – | 182 | 363 | 35 | 61 | 59 | 398 | – | IC50 [12]: 109 nM; IC50 [13]: 94 nM; IC50 [14]: 136 nM; IC50 [15]: 32 nM; IC50 [16]: 21 nM; potency and selectivity in killing of Ewing sarcoma cells ([17]; compared with other MTM SA derivatives, FIG. 10): even more potent and highly selective in killing of Ewing sarcoma cells than other MTM SA derivatives |
| COC(=O)[C@H](Cc1ccc(O)cc1)NC(=O)[C@@H](OC)[C@@H]1Cc2cc3cc(OC4CC(OC5CC(O)C(O)C(C)O5)C(O)C(C)O4)c(C)c(O)c3c(O)c2C(=O)[C@H]1OC1CC(OC2CC(OC3CC(C)(O)C(O)C(C)O3)C(O)C(C)O2)C(O)C(C)O1 (stereo partly drawn) [MTMSA-Tyr] | 133 | 170 | 306 | 130 | 263 | 266 | 138 | 189 | 171 | 867 | 231 | – |
| CO[C@H](C(=O)NCCc1c[nH]c2ccc(O)cc12)[C@@H]1Cc2cc3cc(OC4CC(OC5CC(O)C(O)C(C)O5)C(O)C(C)O4)c(C)c(O)c3c(O)c2C(=O)[C@H]1OC1CC(OC2CC(OC3CC(C)(O)C(O)C(C)O3)C(O)C(C)O2)C(O)C(C)O1 (stereo partly drawn) [MTMSA-Serotonin] | 667 | 690 | 612 | 671 | 749 | 658 | 610 | 753 | 676 | > 3000 | 916 | – |
| CO[C@H](C(=O)C(C)=O)[C@@H]1Cc2cc3cc(OC4C[C@@H](OC5C[C@@H](O)[C@H](O)C(C)O5)[C@H](O)C(C)O4)c(C)c(O)c3c(O)c2C(=O)[C@H]1OC1C[C@@H](OC2C[C@@H](OC3C[C@](C)(O)[C@H](O)C(C)O3)[C@@H](O)C(C)O2)[C@H](O)C(C)O1 (stereo partly drawn) [MTM SDK] | – | – | – | – | – | – | – | – | – | – | – | activity compared to the parent MTM [18]: increased activity |
| COC(C(=O)O)[C@@H]1Cc2cc3cc(OC4CC(OC5CC(O)C(O)C(C)O5)C(O)C(C)O4)c(C)c(O)c3c(O)c2C(=O)[C@H]1OC1CC(OC2CC(OC3CC(C)(O)C(O)C(C)O3)C(O)C(C)O2)C(O)C(C)O1 (stereo partly drawn) [MTM SA, mithramycin side chain carboxylic acid] | – | – | – | – | – | – | – | – | – | – | – | activity compared to the parent MTM [18]: significantly decreased activity |
| COC(=O)[C@H](C)NC(=O)[C@@H](OC)[C@@H]1Cc2cc3cc(OC4CC(OC5CC(O)C(O)C(C)O5)C(O)C(C)O4)c(C)c(O)c3c(O)c2C(=O)[C@H]1OC1CC(OC2CC(OC3CC(C)(O)C(O)C(C)O3)C(O)C(C)O2)C(O)C(C)O1 (stereo partly drawn) [MTM SA-Ala] | – | – | – | – | – | – | – | – | – | – | – | selectivity against Ewing sarcoma cells relative to non-Ewing cells ([17]; FIG. 9, right panel): 9 fold; less potent than MTM ([17]; against Ewing sarcoma cells, relative to MTM): about 200 fold; higher selectivity than MTM against Ewing sarcoma relative to non-Ewing cell lines ([17]; relative to MTM, 72 hr): 3 fold |
